pIC50: −log10 of the molar value.
The molecules below were run against T1, human plasma protein factor Xa (Homo sapiens, UniProt P00742) (assay: Factor Xa IC50 determination: cleavage of paranitroanilide substrate S-2765 in 96-well plates). Details: fXa 1 nM, S-2765 100 μM, Tris buffered saline pH 7.4, room temperature.
T1 construct: measure proteolytic activity of the enzyme (factor Xa); purchased Haematologic Technologies (Essex Junction, Vt.); host or cells: human plasma
T1 sequence (P00742 235-488 limits assumed): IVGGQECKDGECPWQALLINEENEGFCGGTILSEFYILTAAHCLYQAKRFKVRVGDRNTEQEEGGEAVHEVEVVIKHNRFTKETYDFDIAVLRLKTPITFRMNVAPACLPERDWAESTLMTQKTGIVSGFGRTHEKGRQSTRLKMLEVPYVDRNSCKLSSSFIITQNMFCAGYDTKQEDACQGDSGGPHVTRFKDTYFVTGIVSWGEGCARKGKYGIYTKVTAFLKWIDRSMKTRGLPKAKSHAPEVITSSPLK
T1 sequence (P00742 41-179 partner limits assumed): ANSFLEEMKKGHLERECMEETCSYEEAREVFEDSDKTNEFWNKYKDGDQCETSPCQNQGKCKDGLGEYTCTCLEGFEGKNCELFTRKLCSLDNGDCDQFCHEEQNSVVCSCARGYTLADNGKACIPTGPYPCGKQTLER
Assay type: biochemical
Method in brief: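 Human plasma factor Xa (1 nM) preincubated 5 min at room temperature with inhibitor (0.01 nM–10 μM final) in Tris-buffered saline pH 7.4 with 5 mM CaCl2, 0.1% BSA, 5% DMSO. S-2765 at 100 μM final; hydrolysis at 405 nm over 2 min. IC50 from 4-parameter fit of initial velocities.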
With COC(=O)c1ccccc1Nc1ccc(C2=NOC(CNC(=O)c3ccc(Cl)s3)C2)cc1 (stereo not drawn) [Example 260, 2-[4-(5-{[(5-Chloro-thiophene-2-carbonyl)-amino]-methyl}-4,5-dihydro-isoxazol-3-yl)-phenylamino]-benzoic acid methyl ester] the pIC50 was no more than 6.30.
CCCN(C)C(=N)c1ccc(-c2cc(CN(C)C(=O)c3ccc(Cl)s3)on2)cc1 [Example 43, 5-Chloro-thiophene-2-carboxylic acid methyl-{3-[4-(N-methyl-N-propyl-carbamimidoyl)-phenyl]-isoxazol-5-ylmethyl}-amide] showed a pIC50 of no more than 6.30.
O=C(NCC1CC(c2ccc(-c3ccccn3)cc2)=NO1)c1ccc(Cl)s1 (stereo not drawn) [Example 219, 5-Chloro-thiophene-2-carboxylic acid [3-(4-pyridin-2-yl-phenyl)-4,5-dihydro-isoxazol-5-ylmethyl]-amide] gave a pIC50 of no less than 7.00.
O=C(NCC1CC(c2ccc(Oc3ccccc3)cc2)=NO1)c1ccc(Cl)s1 (stereo not drawn) [Example 5, 5-Chloro-thiophene-2-carboxylic acid [3-(4-phenoxy-phenyl)-4,5-dihydro-isoxazol-5-ylmethyl]-amide] gave a pIC50 of no more than 6.30.
With CNC(=N)c1ccc(-c2cc(CN(C)C(=O)c3ccc(Cl)s3)on2)cc1 [Example 48, 5-Chloro-thiophene-2-carboxylic acid methyl-{3-[4-(N-methylcarbamimidoyl)-phenyl]-isoxazol-5-ylmethyl}-amide] the pIC50 was no less than 7.00.
O=C(NCc1cn(-c2ccc(N3CCCCC3=O)nc2)nn1)c1ccc(Cl)s1 [Example 388, 5-Chloro-N-((1-(6-(2-oxopiperidin-1-yl)pyridin-3-yl)-1H-1,2,3-triazol-4-yl)methyl)thiophene-2-carboxamide] showed a pIC50 of no less than 7.00.
In the case of CN1CCN=C1c1ccc(-c2ccc(F)c(CNC(=O)c3ccc(Cl)s3)c2)cc1 [Example 375, 5-Chloro-N-((5-(4-(1-methyl-4,5-dihydro-1H-imidazol-2-yl)phenyl)-2-fluorophenyl)methyl)thiophene-2-carboxamide], the pIC50 was no less than 7.00.
CN(Cc1ccco1)C(=N)c1ccc(C2=NOC(C)(CNC(=O)c3ccc(Cl)s3)C2)cc1 (stereo not drawn) [Example 67, 5-Chloro-thiophene-2-carboxylic acid {3-[4-(N-furan-2-ylmethyl-N-methyl-carbamimidoyl)-phenyl]-5-methyl-4,5-dihydro-isoxazol-5-ylmethyl}-amide] showed a pIC50 of no less than 7.00.
For N=C(c1ccc(-c2cncc(CNC(=O)c3ccc(Cl)s3)c2)cc1)N1CCCCC1 [Example 373, 5-Chloro-N-((5-(4-(imino(piperidin-1-yl)methyl)phenyl)pyridin-3-yl)methyl)thiophene-2-carboxamide], the pIC50 was no less than 7.00.
With CCOc1cc(C(=N)N2CCCC2)ccc1-c1cc(CNC(=O)c2ccc(Cl)s2)on1 [Example 124, 5-Chloro-thiophene-2-carboxylic acid {3-[2-ethoxy-4-(imino-pyrrolidin-1-yl-methyl)-phenyl]-isoxazol-5-ylmethyl}-amide] the pIC50 was no less than 7.00.
O=C(NCc1cn(-c2ccc(-n3ccccc3=O)cc2O)nn1)c1ccc(Cl)s1 [Example 307, 5-Chloro-N-((1-(2-hydroxy-4-(2-oxopyridin-1(2H)-yl)phenyl)-1H-1,2,3-triazol-4-yl)methyl)thiophene-2-carboxamide] was tested, and the pIC50 was no less than 7.00.
Molecule O=C(NCC1CC(c2ccc(C(=O)N3CCC3)cc2)=NO1)c1ccc(Cl)s1 (stereo not drawn) [Example 163, 5-Chloro-thiophene-2-carboxylic acid {3-[4-(azetidine-1-carbonyl)-phenyl]-4,5-dihydro-isoxazol-5-ylmethyl}-amide] has a pIC50 of no less than 7.00.
In the case of CCN(C)C(=N)c1ccc(C2=NOC(CNC(=O)c3ccc(Cl)s3)C2)cc1 (stereo not drawn) [Example 18, 5-Chloro-thiophene-2-carboxylic acid {3-[4-(N-ethyl-N-methyl-carbamimidoyl)-phenyl]-4,5-dihydro-isoxazol-5-ylmethyl}-amide], the pIC50 was no less than 7.00.
In the case of CN(C)c1cc(C(=N)N2CCCC2)ccc1C1=NOC(CNC(=O)c2ccc(Cl)s2)C1 (stereo not drawn) [Example 76, 5-Chloro-thiophene-2-carboxylic acid {3-[2-dimethylamino-4-(imino-pyrrolidin-1-yl-methyl)-phenyl]-4,5-dihydro-isoxazol-5-ylmethyl}-amide], the pIC50 was 6.30 to 7.00.
N=C(c1ccc(C2=NOC(CNC(=O)c3ccc(Cl)s3)C2)c(N2CCCC2)c1)N1CCCCC1 (stereo not drawn) [Example 81, 5-Chloro-thiophene-2-carboxylic acid {3-[4-(imino-piperidin-1-yl-methyl)-2-pyrrolidin-1-yl-phenyl]-4,5-dihydro-isoxazol-5-ylmethyl}-amide] showed a pIC50 of no more than 6.30.
Work on N#Cc1ccc(C2=NOC(CNC(=O)c3ccc(Cl)s3)C2)cc1 (stereo not drawn) [Example 7, 5-Chloro-thiophene-2-carboxylic acid [3-(4-cyano-phenyl)-4,5-dihydro-isoxazol-5-ylmethyl]-amide] yielded a pIC50 of no less than 7.00.
In the case of O=C(NCC1CC(c2ccc(-c3cc(Cl)ccc3CN3CCCC3)cc2)=NO1)c1ccc(Cl)s1 (stereo not drawn) [Example 205, 5-Chloro-thiophene-2-carboxylic acid [3-(5′-chloro-2′-pyrrolidin-1-ylmethyl-biphenyl-4-yl)-4,5-dihydro-isoxazol-5-ylmethyl]-amide], the pIC50 was no less than 7.00.
With O=C(NCc1cn(-c2ccc(-n3cc(F)ccc3=O)cc2)nn1)c1ccc(Cl)s1 [Example 298, 5-Chloro-N-((1-(4-(5-fluoro-2-oxopyridin-1(2H)-yl)phenyl)-1H-1,2,3-triazol-4-yl)methyl)thiophene-2-carboxamide] the pIC50 was no less than 7.00.
In the case of CC(C)Oc1cc(C(=N)N(C)C)ccc1C1=NOC(CNC(=O)c2ccc(Cl)s2)C1 (stereo not drawn) [Example 109, 5-Chloro-thiophene-2-carboxylic acid {3-[4-(N,N-dimethyl-carbamimidoyl)-2-isopropoxy-phenyl]-4,5-dihydro-isoxazol-5-ylmethyl}-amide], the pIC50 was no less than 7.00.
In the case of O=C(NCC1CC(c2cccc(-c3cccc(CN4CCCC4)c3)c2)=NO1)c1ccc(Cl)s1 (stereo not drawn) [Example 265, 5-Chloro-thiophene-2-carboxylic acid [3-(3′-pyrrolidin-1-ylmethyl-biphenyl-3-yl)-4,5-dihydro-isoxazol-5-ylmethyl]-amide], the pIC50 was no more than 6.30.
With O=C(NCc1cn(-c2ccc(I)cc2F)nn1)c1ccc(Cl)s1 [Example 304, 5-Chloro-N-((1-(2-fluoro-4-iodophenyl)-1H-1,2,3-triazol-4-yl)methyl)thiophene-2-carboxamide] the pIC50 was no more than 6.30.
O=C(NCC1CC(c2ccc(-n3cccc(F)c3=O)cc2)=NO1)c1ccc(Cl)s1 (stereo not drawn) [Example 279, 5-Chloro-N-((3-(4-(3-fluoro-2-oxopyridin-1(2H)-yl)phenyl)-4,5-dihydroisoxazol-5-yl)methyl)thiophene-2-carboxamide] showed a pIC50 of no less than 7.00.
O=C(NCC1CC(c2ccc(N3CCSCC3=O)cc2)=NO1)c1ccc(Cl)s1 (stereo not drawn) [Example 244, 5-Chloro-thiophene-2-carboxylic acid {3-[4-(3-oxo-thiomorpholin-4-yl)-phenyl]-4,5-dihydro-isoxazol-5-ylmethyl}-amide] was tested, and the pIC50 was 6.30 to 7.00.
For C[C@@H](NC(=O)c1ccc(Cl)s1)c1cc(-c2ccc(C(=N)N(C)C)cc2)no1 [Example 49, (R)-5-Chloro-thiophene-2-carboxylic acid (1-{3-[4-(N,N-dimethyl-carbamimidoyl)-phenyl]-isoxazol-5-yl}-ethyl)-amide], the pIC50 was no less than 7.00.
CN(C)Cc1ccccc1-c1ccc(C2=NOC(CNC(=O)c3ccc(Cl)s3)C2)cc1 (stereo not drawn) [Example 194, 5-Chloro-thiophene-2-carboxylic acid [3-(2′-dimethylaminomethyl-biphenyl-4-yl)-4,5-dihydro-isoxazol-5-ylmethyl]-amide] was tested, and the pIC50 was no less than 7.00.
N=C(c1ccc(C2=NOC(CNC(=O)c3ccc(Cl)s3)C2)c(OC2CCCC2)c1)N1CCCC1 (stereo not drawn) [Example 114, 5-Chloro-thiophene-2-carboxylic acid {3-[2-cyclopentyloxy-4-(imino-pyrrolidin-1-yl-methyl)-phenyl]-4,5-dihydro-isoxazol-5-ylmethyl}-amide] showed a pIC50 of no less than 7.00.
O=C(NCC1CC(c2ccc(-c3ccccc3CN3CCCCCC3)cc2)=NO1)c1ccc(Cl)s1 (stereo not drawn) [Example 201, 5-Chloro-thiophene-2-carboxylic acid [3-(2′-azepan-1-ylmethyl-biphenyl-4-yl)-4,5-dihydro-isoxazol-5-ylmethyl]-amide] showed a pIC50 of no more than 6.30.
Cc1ccc(=O)n(-c2ccc(-n3cc(CNC(=O)c4ccc(Cl)s4)nn3)cc2)c1 [Example 296, 5-Chloro-N-((1-(4-(5-methyl-2-oxopyridin-1(2H)-yl)phenyl)-1H-1,2,3-triazol-4-yl)methyl)thiophene-2-carboxamide] was tested, and the pIC50 was no less than 7.00.
For CCOc1cc(Nc2ccc(C3=NOC(CNC(=O)c4ccc(Cl)s4)C3)cc2)ccn1 (stereo not drawn) [Example 401, 5-Chloro-N-((3-(4-(2-ethoxypyridin-4-ylamino)phenyl)-4,5-dihydroisoxazol-5-yl)methyl)thiophene-2-carboxamide], the pIC50 was no less than 7.00.
Work on O=C(NCc1cn(-c2ccc(N3CCSCC3=O)cc2)nn1)c1ccc(Cl)s1 [Example 302, 5-Chloro-N-((1-(4-(3-oxothiomorpholino)phenyl)-1H-1,2,3-triazol-4-yl)methyl)thiophene-2-carboxamide] yielded a pIC50 of no less than 7.00.
COCCN(C)C(=N)c1ccc(C2=NOC(CNC(=O)c3ccc(Cl)s3)C2)cc1 (stereo not drawn) [Example 14, 5-Chloro-thiophene-2-carboxylic acid (3-{4-[N-(2-methoxy-ethyl)-N-methyl-carbamimidoyl]-phenyl}-4,5-dihydro-isoxazol-5-ylmethyl)-amide] gave a pIC50 of 6.30 to 7.00.
In the case of O=C(NCc1cc(-c2ccc(C(=O)N3CCCC3)cc2)no1)c1ccc(Cl)s1 [Example 167, 5-Chloro-thiophene-2-carboxylic acid {3-[4-(pyrrolidine-1-carbonyl)-phenyl]-isoxazol-5-ylmethyl}-amide], the pIC50 was 6.30 to 7.00.
CN(C)CCN(C)c1ccc(C2=NOC(CNC(=O)c3ccc(Cl)s3)C2)cc1 (stereo not drawn) [Example 238, 5-Chloro-thiophene-2-carboxylic acid (3-{4-[(2-dimethylamino-ethyl)-methyl-amino]-phenyl}-4,5-dihydro-isoxazol-5-ylmethyl)-amide] showed a pIC50 of 6.30 to 7.00.

Source: patent US8377974B2 (Millennium Pharmaceuticals, Inc., priority 2004, dated 2013)
